60 compounds from PubChem BioAssay (NCI) can be followed below.

What all share (assay): inhibition of tumour cell growth, NCI panel, 48 h
In test [1] the test system is DLD-1 colon.
Test [2] relates to DMS 273 small cell lung.
Test [3] deals with KM20L2 colon.
Test [4] has as its system M19-MEL melanoma.
Test [5] concerns SNB-78 CNS.
Test [6] relates to XF 498 CNS.
Test [7] relates to MDA-N.
Test [8] has as its system T-47D breast.

Structures are written as SMILES. Where “and” joins values, the source holds several entries; their conditions need not be identical. Equal values may be shown once.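 Each compound was tested at five concentrations against cells in 96-well plates for 48 hours. GI50: concentration for 50% inhibition of growth. TGI denotes the concentration required for complete inhibition of growth.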

Take `O=C1C(Cl)C(c2ccccc2O)N1n1cnc2ccccc2c1=O` (stereo not drawn): the TGI in test [1] was > 100 µM; in test [2], > 100 µM; in test [3] it was > 100 µM; in test [4], > 100 µM; in test [5] it was > 100 µM; in test [6] it was 17.9 µM.

For `CC1=NN(C(=O)c2ccc([N+](=O)[O-])cc2)C(=O)C1N=Nc1ccccc1C(=O)O` (stereo not drawn), the TGI in test [1], in test [2], in test [4] and in test [5] was > 100 µM in each case.

For the compound `O=c1c2cccc3cccc(c4n1CCN=4)c32`, the TGI in test [1], in test [2], in test [3], in test [4], in test [5] and in test [6] was > 100 µM in each case.

As for `COc1cccc(C2c3cc4c(cc3OC(N3CCCC3)C2C)OCO4)c1O` (stereo not drawn), the TGI in test [7] was 4.38 µM; in test [8] it was > 94.9 µM.

Take `O=c1[nH]c2cc(Cl)ccc2nc1/C(=N\O)C(O)c1ccc([N+](=O)[O-])cc1` (stereo not drawn): the TGI in test [1], in test [2], in test [3], in test [4] and in test [6] was > 100 µM each time.

`O=C(Nc1cccc(O)c1)C(=O)C(C(=O)c1ccc(Cl)c(Cl)c1)C1OC(=O)c2ccccc21` (stereo not drawn): the TGI in test [2] is 39.5 µM; in test [3], 37.3 µM; in test [4], 27.1 µM; in test [5], > 100 µM; in test [6], 25.6 µM.

Turning to `COc1cc(Nc2nc3ccccc3cc2C(=O)Nc2ccc(F)c(F)c2)cc(OC)c1OC`, in test [8], the GI50 is 1.84 µM and the TGI worked out at 6.39 µM.

For `Cc1c(C(=O)/C=C/c2ccccc2O)c(=O)n(-c2ccccc2)n1C`, the TGI in test [1] was 27.9 µM; in test [2] it was > 100 µM; in test [3], > 100 µM; in test [4], 74.6 µM; in test [5] it was > 100 µM; in test [6], 46.3 µM.

As to `NC(=O)c1cccc(Nc2nccc(Nc3cccc4[nH]ncc34)n2)c1`, in test [8], the GI50 is 2.99 µM and the TGI is > 17.9 µM.

Take `N#CCN/C=C\C(=O)c1ccc(Cl)cc1`: in test [8], the GI50 was 33.9 µM and the TGI is > 100 µM.

`CC(C)(C)C1CCC2c3c([nH]c4ccccc34)C3C(=O)N(c4ccccc4)C(=O)C3C2C1` (stereo not drawn): the TGI in test [1] is > 100 µM; in test [2], 15 µM; in test [4], 23.7 µM; in test [5], 19 µM; in test [6], 3 µM.

As for `Cn1c(=O)c2nc(-c3ccc(Cl)cc3)oc2n(C)c1=O`, the TGI in test [1], in test [2], in test [3], in test [4], in test [5] and in test [6] was > 100 µM in each case.

For the compound `CC(=O)[CH-]C(=O)c1ccccc1.CC(=O)[CH-]C(=O)c1ccccc1.CCOCC[O-].CCOCC[O-].[Ti+4]`, in test [3], the GI50 is 19.6 µM and the TGI is > 100 µM. Further, in test [4], the GI50 is 18.9 µM and the TGI is 43.4 µM.

Consider `CNC(=O)Cc1nc(-c2cccc(NS(=O)(=O)c3c(F)cccc3F)c2F)c(-c2ccnc(Nc3ccccc3)n2)s1`, for which, in test [8], the GI50 was 6.23 µM and the TGI is > 41.1 µM.

`O=c1c(Cl)c(Cl)c(=O)c2sc3cc(Cl)ccc3[nH]c1=2`: in test [8], the TGI was > 100 µM.

Turning to `Cc1ccc(C)c(C2NC(=O)c3ccccc3N2)c1` (stereo not drawn), the values for the TGI in test [7] and in test [8] were 0.319 µM and > 100 µM, respectively.

Turning to `CN1C(=O)C(=O)c2cc3c(c4c2c1cc1ccccc14)OCO3`, the TGI in test [1], in test [2], in test [3], in test [4], in test [5] and in test [6] was > 100 µM in each case.

Consider `Cc1cn2c(/C=N/N=C(N)N)c(-c3cccs3)nc2s1`, for which, in test [8], the GI50 is 5.51 µM and the TGI is 25.9 µM.

As to `COC1=CC(=O)C2C(C1=O)C(c1ccccc1)[C@H]2C` (stereo partly drawn), the TGI is > 10 µM in test [1], > 100 µM in test [2], > 10 µM in test [5] and 49.1 µM in test [6].

With `C/C=C/CC(C)[C@@H](O)[C@H](NC)C(=O)O` (stereo partly drawn), the TGI in test [1], in test [2], in test [3] and in test [4] was > 100 µM in each case.

With `O=Cc1cccc2c1Oc1c(cccc1C(=O)O)S2`, the TGI in test [7] and in test [8] was > 100 µM each time.

Turning to `Cc1cc(C)c(NC(=S)NC(=O)c2ccccc2)cc1C`, the TGI in test [7] and in test [8] was > 100 µM throughout.

Regarding `CC1(CCC(=O)OC2CCCCC2)OCCO1`, the TGI in test [7] and in test [8] was > 100 µM in each case.

On to `COc1ccc(C(=O)c2cc3c(N)c(C(=O)Nc4ccc(C)cc4)sc3nc2C)cc1`, for which, in test [8], the GI50 was 4.78 µM and the TGI came to 91.7 µM.

For `N#CC1=C(N)NC(N2CCOCC2)=NC12Nc1ccccc1N2`, in test [8], the GI50 was 59.1 µM and the TGI is > 100 µM.

On to `CC(C)(C)[Si](C)(C)OC1[C@@H](O[Si](C)(C)C(C)(C)C)[C@@H](CNC(=O)NC(=O)CCl)O[C@H]1n1cnc2c(NC(=O)Nc3ccccc3)ncnc21` (stereo partly drawn), for which, in test [8], the GI50 is 1.01 µM and the TGI worked out at 2.17 µM.

Regarding `COc1cc(CNC2c3cc4c(cc3C(c3cc(OC)c(OC)c(OC)c3)[C@H]3C(=O)OCC23)OCO4)cc(OC)c1OC` (stereo partly drawn), the TGI is > 100 µM in test [1], 0.359 µM in test [3], > 100 µM in test [4] and 8.07 µM in test [6].

Consider `CCN(CC)CCCNC(=O)c1c2c(n3ccccc13)C(=O)c1ncccc1C2=O`, for which, in test [8], the GI50 is 1.34 µM and the TGI is 3.61 µM.

Take `CCn1c(-c2cc3ccccc3cc2O)nn(C(=O)c2c(Cl)cccc2Cl)c1=S`: in test [8], the GI50 was 21 µM and the TGI is > 50 µM.

In the case of `COc1ccc(OC)c(-c2cc(-c3ccc(Cl)cc3)nn2-c2ccc(S(=O)(=O)NC(C)=O)cc2)c1`, in test [8], the GI50 was 13.1 µM and the TGI worked out at 36.1 µM.

For the compound `CCN(CC)CCCC(C)N=C(C1=C(C(=NC(C)CCCN(CC)CC)c2cccc(OC)c2)C(=O)NC1=O)c1cccc(OC)c1` (stereo not drawn), in test [8], the GI50 was 2.02 µM and the TGI is 10.4 µM.

Turning to `Cc1sc2c(c1C)C(c1ccc(Cl)cc1)=N[C@@H](CC(=O)OC(C)(C)C)c1nnc(C)n1-2`, in test [8], the GI50 was 0.342 µM and 0.214 µM; the TGI is 18.8 µM and 19 µM.

Consider `CN1C(=O)N[C@H]2[C@@H]3NC(=O)c4ccc(Br)n4[C@@H]3C[C@]21O`, for which, in test [8], the GI50 was 0.0313 µM and the TGI amounted to 0.23 µM.

With `COc1ccc(-c2c3c(n(C4OC(COC(C)=O)C(OC(C)=O)C(OC(C)=O)C4OC(C)=O)c(=S)c2C#N)CC(C)(C)CC3=O)cc1` (stereo not drawn), the TGI in test [7] and in test [8] was > 100 µM in each case.

On to `CC(=O)OC1CC2C(C)(C)C(=O)C=C[C@]2(C)C2CCC3(C)C(=CC(=O)C3c3ccoc3)[C@]12C` (stereo partly drawn), for which the TGI is 31 µM in test [1]; 28.2 µM in test [3]; 33.5 µM in test [4]; > 100 µM in test [5]; 42.8 µM in test [6].

In the case of `Cc1cc(C)c(Cn2cnc3c(Cl)ncnc32)c(C)c1CCl`, in test [8], the GI50 was 24.9 µM and the TGI is 95.3 µM.

Take `SCCSCCCSCCS`: the TGI in test [7] and in test [8] was > 100 µM in each case.

Consider `CN(Cc1cc(Cl)cc(Cl)c1)CC(C(=O)c1ccccc1)c1ccccc1` (stereo not drawn), for which, in test [8], the TGI came out at 8.68 µM.

Take `CCC(CNc1cc(OC)cc2cccnc12)NC1CCCCC1` (stereo not drawn): in test [8], the GI50 was 17.2 µM and the TGI was 64.3 µM.

With `CN(C)C=C1C(Cl)=C(C=O)CC(C=O)=C1Cl`, the TGI turned out to be 20.9 µM in test [1], 29 µM in test [2], 41 µM in test [3] and 29.1 µM in test [4].

With `COc1nc(N)nc2c1ncn2C1OC(CO)C(O)C1O` (stereo not drawn), in test [8], the GI50 was > 5000 µM and the TGI was > 5000 µM.

Take `COC(=O)c1cc(O)c2c(c1C(=O)OC)C[C@H]1[C@@H]3CC=C4C[C@@H](O)CC[C@]4(C)[C@H]3CC[C@]21C`: in test [8], the GI50 was 1.51 µM and the TGI was found to be 6.91 µM.

Turning to `Cc1nc(N2CCC3(CC2)CO[C@@H](C)[C@H]3N)c(CO)nc1Sc1ccnc(N)c1Cl`, in test [8], the GI50 was 32.4 µM and the TGI was > 100 µM.

For the compound `O=C(/C=C/c1ccccc1)n1c(-c2ccc(Cl)cc2)nc2ccccc21`, in test [8], the GI50 was 1.73 µM and the TGI amounted to 7.68 µM.

`CCc1cccc(CC)c1NC(=O)C1=C(C)NC(C)=C(C(=O)Nc2c(CC)cccc2CC)C1c1ccc([N+](=O)[O-])cc1`: the TGI in test [1] is > 100 µM; in test [3] it was > 100 µM; in test [4] it was 69.2 µM; in test [6], 39.5 µM.

As for `CCCCCCCCCCCCCCCCCC(=O)OCC(COC(=O)CCCN)OC(=O)CCCN` (stereo not drawn), the TGI in test [7] turned out to be 39.4 µM; in test [8], 40 µM.

As to `COc1ccc2c(c1)CC[C@H](O)/C2=C/c1cc(OC)c(OC)c(OC)c1`, in test [8], the GI50 was 0.0354 µM and the TGI turned out to be 52.8 µM.

Consider `CCOC(=O)CC1C(COC(=O)NC)OC(n2cnc3c(NC(=O)Nc4ccccc4)ncnc32)C1O[Si](C)(C)C(C)(C)C` (stereo not drawn), for which, in test [8], the GI50 was 4.95 µM and the TGI is 84.7 µM.

In the case of `Cc1c(C(=O)/C=C/c2ccc(N(C)C)cc2)c(=O)n(-c2ccccc2)n1C`, the TGI in test [2], in test [3], in test [4], in test [5] and in test [6] was > 100 µM in each case.

In the case of `CC(C)(C)CC(C)(C)NCc1cc(C(C)(C)C)cc(CNC(C)(C)CC(C)(C)C)c1O`, in test [8], the GI50 was 2.09 µM and the TGI was 5.14 µM.

Regarding `O=Cc1ccc(-c2ccc(-c3nc4ccccc4o3)cc2)o1`, in test [8], the GI50 is 34.8 µM and the TGI is > 100 µM.

On to `COC(=O)C1[C@H](c2cc(OC)c(OC)c(OC)c2)OC(=O)C1(C(=O)OC)C(=O)c1ccc2c(c1)OCO2` (stereo partly drawn), for which the TGI in test [1], in test [2], in test [3], in test [4], in test [5] and in test [6] was > 100 µM throughout.

For `COc1ccc2nc3cc([N+](=O)[O-])ccc3c(NCCCN(C)C)c2c1`, in test [7], the GI50 was 0.491 µM and the TGI is 2 µM.

As for `Cc1cccc(C)c1NC(=O)Nc1ccc(S(N)(=O)=O)cc1`, the TGI in test [7] and in test [8] was > 100 µM in each case.

As to `O=[N+]([O-])CCc1cccc([N+](=O)[O-])c1`, the TGI in test [1], in test [2], in test [3], in test [4] and in test [5] was > 100 µM each time.

Regarding `COc1ccccc1CNCCCN1C(=O)c2ccc3c4c(ccc(c24)C1=O)C(=O)N(CCCCNCCCN)C3=O`, in test [8], the GI50 is 1.13 µM and the TGI was 3.65 µM.

As for `Cc1cc(=O)oc2c(C)c(OCCCOc3ccc4c(C)cc(=O)oc4c3C)ccc12`, the TGI in test [1], in test [2], in test [3], in test [4], in test [5] and in test [6] was > 100 µM each time.

For `COc1ccc(OC)c2c1[nH]c(=O)c1c3ncccc3cn21`, in test [8], the GI50 was 3.54 µM and the TGI was > 100 µM.

As for `Cn1c2ccc(Br)cc2c2c3c(c4c5ccccc5[nH]c4c21)C(=O)N(O)C3=O`, in test [8], the GI50 was 0.109 µM and the TGI was determined as 0.737 µM.

In the case of `COc1cc(-c2nc(-c3nc4ccccc4[nH]3)cc3c2[nH]c2ccccc23)cc(OC)c1OC`, in test [8], the GI50 is 2.92 µM and the TGI was > 100 µM.
